From article PMC5581131, “The novel sphingosine-1-phosphate receptors antagonist AD2900 affects lymphocyte activation and inhibits T-cell entry into the lymph nodes” (Oncotarget, 2017)

Columns and labels:
[1] = test system: human PBMCs; experiment: 5-day MLR with Et-18-OCH3, BAPTA-AM or 8-bromo-cAMP preincubation, analogues present throughout; assay type: cell-based; conditions: 2 μM
Experimental: To determine whether the effect of inhibition of AD2900 on PBMC proliferation is dependent on the same signal transduction pathways, we next examined the capacities of the intracellular Ca^2+ chelator-BAPTA-AM, phosphatidylinositol-specific PLC inhibitor-Et-18-OCH3, and cell-permeate exogenous cAMP-8-bromo-cAMP to alter the suppressive effect of AD2900 and FTY720 on PBMC proliferation. S1P served as a positive control (Figures 2A, 2B, and 2C, respectively). PBMCs were pre-incubated for 1 hour with the inhibitors before the addition of 2 μM AD2900, FTY720, or S1P in the MLR experiment. The inhibitors and the analogues were present in the culture throughout the allogeneic activation. AD2900 suppression of PBMC proliferation was reduced from 59% ± 3% to 32% ± 7% by the exogenous cAMP. BAPTA-AM also partially reversed AD2900 suppression of PBMC proliferation from 59% ± 3% to 32% ± 3%, yet Et-18-OCH3 had no effect (Figure 2A).
Figure 2 Effect of AD2900 on proliferation is dependent on cAMP reduction and calcium signal transduction The effect of Edelfosine (Et-18-OCH3) (Et), BAPTA-AM (BAPTA), or 8-bromo-cAMP (8-b-CAMP) on the inhibition of PBMC proliferation was tested in a 5-day MLR experiment. The cells were incubated with 1 μM Edelfosine, 0.2 μM BAPTA-AM, or 5 μM 8-bromo-cAMP for 1 hour before the addition of sphingolipid analogues, 2 μM AD2900 (AD) (A), FTY720 (FTY) (B), or S1P (C). Significances are compared to AD2900/FTY/S1P without preincubation, respectively. Graphs summarize the results of at least four independent experiments. Results of Student’s t-test: *(P < 0.05, two-tailed test), ** (P < 0.01, two-tailed test).
Human PBLs were collected from human whole blood collected from healthy donors. Subsequently, the cells were centrifuged on a Ficoll-Paque gradient (Fresenius Kabi Norge AS, Oslo, Norway) and were isolated from the interphase layer. For the human MLR experiment, PBMCs from one healthy donor were pretreated for 1 day with AD2900, AD2730, AD2750, YZ297, YZ158, FTY720, or SEW2871. After 24 h, cells were washed and plated at a concentration of 5 × 10^4 cells/well in round bottom 96-well plates containing RPMI-1640 medium Supplemented with 10% human AB serum, 1% penicillin/streptomycin, and 1% l-glutamine (Beit Haemek, Israel). PBMCs from a second donor were irradiated at 3000 γ dosage and added to the plate in a 1:1 ratio with the first donor cells. The cells were cultured for 5 days. For the thymidine incorporation assay, after 4 days of co-culture, cells were pulsed with ^3H-thymidine at 1 μCi (0.037MBq) per well (PerkinElmer, MA, USA) for 16 additional hours and then harvested onto glass-fiber filters. ^3H-thymidine incorporation was measured using Top Count. NXT (PerkinElmer, UK). In other experiments, the supernatant was harvested after 5 days of co-culture for IFN-γ and TNF-α cytokine ELISA measurements (eBioscience, CA, USA). The cells were then collected for assessing apoptosis by FACS in MACSQuant analyzer (Miltenyi Biotech, Germany). In another set of experiments, the PBMCs of two donors were mixed. Sphingolipid analogues were then added to the culture and sustained through the 5 days of the MLR experiment.

[2] = test system: S1P1 expression on PBMCs; experiment: S1P1 cell surface expression on PBMCs, FACS; assay type: cell-based, human
Experimental: Among the S1P receptors, S1P1 is the most widespread receptor in the immune system and is expressed by several cell populations. […] Since AD2900 functions as an antagonist on S1P1, we next checked whether AD2900 affects S1P1 expression on PBMCs; FTY720 and SEW2817 were used as positive controls. The percentage of cells expressing S1P1 on their cell surface was detected by FACS analysis and was calculated as % of expression in non-treated cells. Low doses of AD2900 led to a decreased number of S1P1-expressing PBMCs after a 30-min treatment (Figure 3A and Supplementary Figure 2C). […] The highest effect was obtained at 100 nM with a mean of 51% ± 9% expression as compared to untreated control PBMCs.
Figure 3 AD2900 downregulates the percentage of S1P1- and CCR7-expressing cells in PBMCs (A, B) The percentages of S1P1-positive PBMCs after the treatment with different concentrations of AD2900, FTY720, or SEW2871 and at different time points were examined by FACS analysis. S1P1 expression was tested in PBMCs after a 30-min treatment with AD2900 at different concentrations (A) or after a 30-min or 60-min treatment with 100 nM AD2900, FTY720, or SEW2871 (B). (C) The percentage of CCR7-positive PBMCs was tested by FACS analysis after a 30-min treatment with 100 nM AD2900, FTY720, or SEW2871. All the significances are compared to untreated PBMCs. Results summarize the results of at least four independent experiments. Results of Student’s t-test: *(P < 0.05, two-tailed test), ** (P < 0.01, two-tailed test), *** (P < 0.001, two-tailed test), **** (P < 0.0001, two-tailed test).
Human PBMCs: For the apoptosis test, anti-AnnexinV-FITC (BD Biosciences, CA, USA) was used. To analyze S1P1 surface expression on AD2900-treated PBMCs, the following were used: anti-S1P1 (Alomone labs, Israel), anti-EDG-1 (Abcam, UK), Dylight405-conjugated AffiniPure Goat Anti-Rabbit lgG (H + L), and APC-conjugated AffiniPure F(ab')2 Goat Anti-Rabbit lgG(H + L) (Jackson ImmonoResearch, USA). For CCR7 expression, we used anti-CCR7-APC (Biolegend, CA, USA).

SMILES | suppression of PBMC proliferation ([1]; present throughout MLR, without preincubation) | suppression of PBMC proliferation with BAPTA-AM ([1]; 1 hour preincubation with 0.2 μM BAPTA-AM) | effect of Et-18-OCH3 on suppression of PBMC proliferation ([1]; 1 hour preincubation with 1 μM Et-18-OCH3) | suppression of PBMC proliferation with exogenous cAMP ([1]; 1 hour preincubation with 5 μM 8-bromo-cAMP) | effect on S1P1 cell surface expression, 30-min versus 60-min treatment ([2]; 100 nM) | S1P1 expression as compared to untreated control PBMCs ([2]; 100 nM, 30-min treatment, highest effect) | S1P1 expression level ([2]; 4000 nM, 30-min treatment) | concentrations that significantly and dose-dependently decreased S1P1 expression ([2]; 30-min treatment) [nM] | effect of Et-18-OCH3, BAPTA-AM and 8-bromo-cAMP on suppression of PBMC proliferation ([1]; 1 hour preincubation with the inhibitors)
CCCCCCCCCCCCCCCCNC(CO)(CO)CO [AD2900] | 59% ± 3% | 32% ± 3% | no effect | 32% ± 7% | transient and reversed shortly after a 60-min treatment | 51% ± 9% | returned to that of untreated control | 25 to 2000 | 
CCCCCCCCc1ccc(CCC(N)(CO)CO)cc1 [FTY720, Fingolimod, reference compound] |  |  |  |  | smaller reduction of S1P1 cell surface expression, but its effect was not reversed after a 60-min treatment |  |  |  | not nullified by any of these interventions
